Measured values as given in PubChem BioAssay AID192 (DTP/NCI, 2004).
“And” between values parts separate entries of the source, which are not always exact repeats. Identical values can stand only once. Inconclusive results and toxic doses are left out.

System: BDF1 mice, B16 melanoma ip, median survival T/C
Experiment: NCI In Vivo Anticancer Drug Screen. Data for tumor model B16 Melanoma (intraperitoneal) in B6D2F1 (BDF1) mice
Conditions: endpoint: median survival time, higher = longer survival
How it was run: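 Compounds were tested in mice carrying transplantable tumors. Survival or tumor size was recorded, and each value is the treated-group measurement (T) divided by that of the vehicle-treated control group (C).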

[1] = dose: 25.0 mg/kg/injection, schedule: Q01DX009 (ip), vehicle: saline with Tween-80
[2] = dose: 2.5 mg/kg/injection, schedule: Q01DX009 (ip), vehicle: saline with Tween-80
[3] = dose: 5.0 mg/kg/injection, schedule: Q01DX009 (ip), vehicle: saline with Tween-80
[4] = dose: 25.0 mg/kg/injection, schedule: Q01DX009 (ip), vehicle: water
[5] = dose: 6.25 mg/kg/injection, schedule: Q01DX009 (ip), vehicle: saline
[6] = dose: 12.5 mg/kg/injection, schedule: Q01DX009 (ip), vehicle: saline
[7] = dose: 100.0 mg/kg/injection, schedule: Q01DX009 (ip), vehicle: Klucel (hydroxypropylcellulose) (HPC)
[8] = dose: 50.0 mg/kg/injection, schedule: Q01DX009 (ip), vehicle: saline with Tween-80
[9] = dose: 1.25 mg/kg/injection, schedule: Q01DX009 (ip), vehicle: saline with Tween-80

In the case of `ClCc1cccc2c(CCl)cccc12`, the T/C (dose: 6.25 mg/kg/injection, schedule: Q01DX009 (ip), vehicle: saline with Tween-80) is reported as 98 % of control, the T/C (dose: 12.5 mg/kg/injection, schedule: Q01DX009 (ip), vehicle: saline with Tween-80) is reported as 98 % of control and the T/C [1] is reported as 102 % of control. The T/C (dose: 25.0 mg/kg/injection, schedule: Q01DX009 (ip), vehicle: suspension in saline) was 100 % of control, the T/C (dose: 50.0 mg/kg/injection, schedule: Q01DX009 (ip), vehicle: suspension in saline) was 107 % of control and the T/C (dose: 100.0 mg/kg/injection, schedule: Q01DX009 (ip), vehicle: suspension in saline) was 90 % of control.
With `CC1OC(=O)C(C(C)C)NC(=O)C(C(C)C)OC(=O)C(C(C)C)NC(=O)C(C)OC(=O)C(C(C)C)NC(=O)C(C(C)C)OC(=O)C(C(C)C)NC(=O)C(C)OC(=O)C(C(C)C)NC(=O)C(C(C)C)OC(=O)C(C(C)C)NC1=O` (configuration not stated) the T/C (dose: 0.04 mg/kg/injection, schedule: Q01DX009 (ip), vehicle: saline with Tween-80) was 101 % of control, the T/C (dose: 0.08 mg/kg/injection, schedule: Q01DX009 (ip), vehicle: saline with Tween-80) was 106 % of control and the T/C (dose: 0.16 mg/kg/injection, schedule: Q01DX009 (ip), vehicle: saline with Tween-80) was 117 % of control. The T/C (dose: 0.2 mg/kg/injection, schedule: Q01DX009 (ip), vehicle: DMSO) was 117 % of control, the T/C (dose: 0.31 mg/kg/injection, schedule: Q01DX009 (ip), vehicle: saline with Tween-80) was 152 % of control and the T/C (dose: 0.4 mg/kg/injection, schedule: Q01DX009 (ip), vehicle: DMSO) was 176 % of control. For the same compound, the T/C (dose: 0.75 mg/kg/injection, schedule: Q01DX009 (ip), vehicle: Klucel (hydroxypropylcellulose) (HPC)) was 106 % of control, the T/C (dose: 0.75 mg/kg/injection, schedule: Q01DX009 (oral), vehicle: Klucel (hydroxypropylcellulose) (HPC)) was 101 % of control and the T/C (dose: 1.5 mg/kg/injection, schedule: Q01DX009 (ip), vehicle: Klucel (hydroxypropylcellulose) (HPC)) was 101 % of control. The T/C (dose: 1.5 mg/kg/injection, schedule: Q01DX009 (oral), vehicle: Klucel (hydroxypropylcellulose) (HPC)) was 104 % of control, the T/C [2] was 153 % of control and the T/C (dose: 3.0 mg/kg/injection, schedule: Q01DX009 (oral), vehicle: Klucel (hydroxypropylcellulose) (HPC)) was 105 % of control. The T/C [3] was 183 % of control, the T/C (dose: 5.0 mg/kg/injection, schedule: Q01DX009 (oral), vehicle: saline with Tween-80) was 105 % of control and the T/C (dose: 6.0 mg/kg/injection, schedule: Q01DX009 (ip), vehicle: saline with Tween-80) was 165 % of control. The T/C (dose: 6.0 mg/kg/injection, schedule: Q01DX009 (oral), vehicle: Klucel (hydroxypropylcellulose) (HPC)) was 107 % of control, the T/C (dose: 10.0 mg/kg/injection, schedule: Q01DX009 (ip), vehicle: saline with Tween-80) was 171 % of control and the T/C (dose: 10.0 mg/kg/injection, schedule: Q01DX009 (oral), vehicle: saline with Tween-80) was 116 % of control. The T/C (dose: 12.0 mg/kg/injection, schedule: Q01DX009 (oral), vehicle: Klucel (hydroxypropylcellulose) (HPC)) was 100 % of control, the T/C (dose: 20.0 mg/kg/injection, schedule: Q01DX009 (ip), vehicle: saline with Tween-80) was 94 % of control and the T/C (dose: 20.0 mg/kg/injection, schedule: Q01DX009 (oral), vehicle: saline with Tween-80) was 116 % of control. The T/C (dose: 24.0 mg/kg/injection, schedule: Q01DX009 (oral), vehicle: Klucel (hydroxypropylcellulose) (HPC)) was 94 % of control and the T/C (dose: 40.0 mg/kg/injection, schedule: Q01DX009 (oral), vehicle: saline with Tween-80) was 109 % of control.
For `O=NNc1cnccn1`, the T/C [4] was 164 % of control.
In the case of `CN(C)C(=O)c1cccc(COc2ccc(N3C(N)=NC(N)=NC3(C)C)cc2Cl)c1`, the T/C (dose: 1.56 mg/kg/injection, schedule: Q01DX009 (ip), vehicle: saline) is reported as 120 % of control, the T/C (dose: 3.13 mg/kg/injection, schedule: Q01DX009 (ip), vehicle: saline) is reported as 120 % of control and the T/C [5] is reported as 117 % of control. For the same compound, the T/C [6] was 104 % of control and 105 % of control, the T/C (dose: 25.0 mg/kg/injection, schedule: Q01DX009 (ip), vehicle: saline) was 104 % of control and 117 % of control and the T/C (dose: 50.0 mg/kg/injection, schedule: Q01DX009 (ip), vehicle: saline) was 100 % of control.
With `COC1/C=C\C=C(/C)C(=O)NC2=CC(=O)C(N)=C(CC(C)CC(OC)C(O)C(C)C=C(C)C1OC(N)=O)C2=O` (configuration not stated) the T/C (dose: 0.75 mg/kg/injection, schedule: Q01DX009 (ip), vehicle: saline with Tween-80) was 117 % of control.
For `CCOc1ccccc1NC(=O)Nc1ccccc1OC`, the T/C [7] was 86 % of control, the T/C (dose: 200.0 mg/kg/injection, schedule: Q01DX009 (ip), vehicle: Klucel (hydroxypropylcellulose) (HPC)) was 98 % of control and the T/C (dose: 400.0 mg/kg/injection, schedule: Q01DX009 (ip), vehicle: Klucel (hydroxypropylcellulose) (HPC)) was 89 % of control.
For `Cc1ccc(Nc2c3ccccc3nc3ccccc23)cc1`, the T/C (dose: 18.0 mg/kg/injection, schedule: Q01DX009 (ip), vehicle: saline with Tween-80) was 123 % of control, the T/C (dose: 18.0 mg/kg/injection, schedule: Q04DX003 (ip), vehicle: saline with Tween-80) was 105 % of control and the T/C (dose: 37.5 mg/kg/injection, schedule: Q04DX003 (ip), vehicle: saline with Tween-80) was 110 % of control. For the same compound, the T/C (dose: 75.0 mg/kg/injection, schedule: Q04DX003 (ip), vehicle: saline with Tween-80) was 105 % of control.
`CC(=O)ON1C(=O)C=CC1=O` was tested, and the T/C (dose: 3.13 mg/kg/injection, schedule: Q01DX009 (ip), vehicle: water) was 92 % of control, the T/C (dose: 6.25 mg/kg/injection, schedule: Q01DX009 (ip), vehicle: water) was 103 % of control and the T/C (dose: 12.5 mg/kg/injection, schedule: Q01DX009 (ip), vehicle: water) was 106 % of control. For the same compound, the T/C [4] was 87 % of control.
`[N-]=[N+]=C1N=CN=C1c1ncn[nH]1` was tested, and the T/C (dose: 3.12 mg/kg/injection, schedule: Q01DX009 (ip), vehicle: carboxymethylcellulose (CMC)) was 107 % of control and the T/C (dose: 6.25 mg/kg/injection, schedule: Q01DX009 (ip), vehicle: carboxymethylcellulose (CMC)) was 119 % of control.
With `CC(C)CC(Br)C(=O)NCC(=O)O` (configuration not stated) the T/C [1] was 95 % of control and the T/C [8] was 95 % of control.
In the case of `C[C@]12CC[C@H](O)C[C@@H]1CC[C@@H]1[C@@H]2C(=O)C[C@@]2(C)[C@H]1CC[C@]2(O)C(=O)CBr`, the T/C (dose: 50.0 mg/kg/injection, schedule: Q01DX009 (ip), vehicle: Klucel (hydroxypropylcellulose) (HPC)) is reported as 90 % of control, the T/C [8] is reported as 100 % of control and the T/C [7] is reported as 93 % of control. For the same compound, the T/C (dose: 100.0 mg/kg/injection, schedule: Q01DX009 (ip), vehicle: saline with Tween-80) was 94 % of control and the T/C (dose: 200.0 mg/kg/injection, schedule: Q01DX009 (ip), vehicle: saline with Tween-80) was 91 % of control.
In the case of `Cc1n(CC(C)C)c2c([n+]1CC(=O)c1ccc([N+](=O)[O-])cc1)C(=O)c1ccccc1C2=O`, the T/C (dose: 0.1 mg/kg/injection, schedule: Q01DX009 (ip), vehicle: saline) is reported as 95 % of control, the T/C (dose: 0.2 mg/kg/injection, schedule: Q01DX009 (ip), vehicle: saline) is reported as 97 % of control and the T/C (dose: 0.4 mg/kg/injection, schedule: Q01DX009 (ip), vehicle: saline) is reported as 97 % of control. For the same compound, the T/C (dose: 0.8 mg/kg/injection, schedule: Q01DX009 (ip), vehicle: saline) was 88 % of control, the T/C (dose: 1.2 mg/kg/injection, schedule: Q01DX009 (ip), vehicle: Klucel (hydroxypropylcellulose) (HPC)) was 93 % of control and the T/C [9] was 86 % of control. For the same compound, the T/C (dose: 1.8 mg/kg/injection, schedule: Q01DX009 (ip), vehicle: Klucel (hydroxypropylcellulose) (HPC)) was 93 % of control, the T/C [2] was 86 % of control and the T/C (dose: 3.0 mg/kg/injection, schedule: Q01DX009 (ip), vehicle: Klucel (hydroxypropylcellulose) (HPC)) was 87 % of control. For the same compound, the T/C (dose: 5.0 mg/kg/injection, schedule: Q01DX009 (ip), vehicle: Klucel (hydroxypropylcellulose) (HPC)) was 93 % of control.
With `Cn1c(CC#N)c(C[N+](C)(C)C)c2ccccc21` the T/C [9] was 104 % of control, the T/C [2] was 86 % of control and the T/C [3] was 100 % of control.
For `COc1cc(OC)c(OC)cc1/C=C\c1ccnc2ccccc12`, the T/C (dose: 100.0 mg/kg/injection, schedule: Q01DX009 (ip), vehicle: saline) was 97 % of control, the T/C (dose: 200.0 mg/kg/injection, schedule: Q01DX009 (ip), vehicle: saline) was 105 % of control and the T/C (dose: 400.0 mg/kg/injection, schedule: Q01DX009 (ip), vehicle: saline) was 107 % of control. The T/C (dose: 800.0 mg/kg/injection, schedule: Q01DX009 (ip), vehicle: saline) was 102 % of control.
`CN(C)CCOC(c1ccccc1)c1ccccc1` was tested, and the T/C (dose: 3.12 mg/kg/injection, schedule: Q01DX009 (ip), vehicle: saline) was 86 % of control, the T/C [5] was 100 % of control and the T/C [6] was 100 % of control.
